From ChEMBL document CHEMBL1152362, “Asperelines A-F, peptaibols from the marine-derived fungus Trichoderma asperellum” (J Nat Prod, 2009)
Non-standard residues stand in square brackets, D forms with d. Residues, ends and D or L forms follow the SMILES beside them. *: point of attachment. Prolinol = OC[C@@H]1CCCN1*; Aib = CC(C)(N)C(=O)O

Legend:
Staphylococcus aureus = assay: Antimicrobial activity against Staphylococcus aureus; assay type: functional
Escherichia coli = assay: Antimicrobial activity against Escherichia coli; assay type: functional
Pyricularia oryzae = assay: Antimicrobial activity against Pyricularia oryzae; assay type: functional, organism-based
Alternaria solani = assay: Antimicrobial activity against Alternaria solani; assay type: functional, organism-based

| SMILES | IC90 (Staphylococcus aureus) [µg/mL] | IC90 (Escherichia coli) [µg/mL] | IC50 (Pyricularia oryzae) [µg/mL] | IC50 (Alternaria solani) [µg/mL] |
| --- | --- | --- | --- | --- |
| CC[C@@H](C)[C@H](NC(=O)C(C)(C)NC(=O)[C@@H](NC(=O)C(C)(C)NC(=O)[C@H](C)NC(C)=O)C(C)C)C(=O)NC(C)(C)C(=O)NC(C)(C)C(=O)N[C@@H](C)C(=O)NC(C)(C)C(=O)N1CCC[C@H]1CO [ASPERELINE B] | > 500 | > 500 | > 100 | > 100 |
| CC(=O)NC(C)(C)C(=O)NC(C)(C)C(=O)N[C@H](C(=O)NC(C)(C)C(=O)N[C@H](C(=O)NC(C)(C)C(=O)NC(C)(C)C(=O)N[C@@H](C)C(=O)NC(C)(C)C(=O)N1CCC[C@H]1CO)C(C)C)C(C)C [ASPERELINE D] (Ac-[Aib][Aib]V[Aib]V[Aib][Aib]A[Aib]-Prolinol) | > 500 | > 500 | > 100 | > 100 |
| CC[C@@H](C)[C@H](NC(=O)C(C)(C)NC(=O)[C@@H](NC(=O)[C@@H](NC(=O)C(C)(C)NC(C)=O)C(C)C)C(C)C)C(=O)NC(C)(C)C(=O)NC(C)(C)C(=O)N[C@@H](C)C(=O)NC(C)(C)C(=O)N1CCC[C@H]1CO [ASPERELINE F] | > 500 | > 500 | > 100 | > 100 |
| CC[C@@H](C)[C@H](NC(=O)C(C)(C)NC(=O)[C@@H](NC(=O)C(C)(C)NC(=O)C(C)(C)NC(C)=O)C(C)C)C(=O)NC(C)(C)C(=O)NC(C)(C)C(=O)N[C@@H](CO)C(=O)NC(C)(C)C(=O)N1CCC[C@H]1CO [ASPERELINE E] | > 500 | > 500 | > 100 | > 100 |
| CC[C@@H](C)[C@H](NC(=O)C(C)(C)NC(=O)[C@@H](NC(=O)C(C)(C)NC(=O)C(C)(C)NC(C)=O)C(C)C)C(=O)NC(C)(C)C(=O)NC(C)(C)C(=O)N[C@@H](C)C(=O)NC(C)(C)C(=O)N1CCC[C@H]1CO [ASPERELINE A] | > 500 | > 500 | > 100 | > 100 |
| CC[C@@H](C)[C@H](NC(=O)C(C)(C)NC(=O)[C@@H](NC(=O)C(C)(C)NC(=O)C(C)(C)NC(C)=O)C(C)C)C(=O)NC(C)(C)C(=O)N[C@@H](C)C(=O)N[C@@H](C)C(=O)NC(C)(C)C(=O)N1CCC[C@H]1CO [ASPERELINE C] | > 500 | > 500 | > 100 | > 100 |
